According to patent US20220152077A1 (THE UNIVERSITY OF WARWICK, priority 2019, published 2022):
Entries after “also recorded” stand apart in the source; their conditions may differ. Where two headings read alike, the source gives them in different places.

Assays:
[1] = test system: Goa; assay type: cell-based, human; details: PTX-treated cells
Method: Cells were then incubated for 24 hours before addition of 100 ng/ml PTX, to inhibit activity of endogenous Gαi/o, and then incubated for a further 16-18 hours. Transfected cells were then assayed as per cAMP inhibition experiments, but co-stimulated with agonist and 100 nM forskolin.
(§1) Data Analysis. […] Statistical significance was tested as indicated in the text using paired or unpaired t-tests or one-way or two-way ANOVAs with repeated measures (RM) as appropriate. Bonferroni corrections for multiple comparisons were performed. All in vitro cell signalling assay data was analysed using Prism 7.0e (Graphpad software, San Diego, Calif.), with all concentration-response curves being fitted using a 3 parameter logistic equation to calculate response range and IC50. All cAMP data was normalised to a forskolin concentration-response curve ran in parallel to each assay. […] Radioligand displacement curves were fitted to the one-site competition binding equation yielding log Ki values. […] To determine the extent of ligand-induced recruitment of β-arrestin2-YFP to either the A1R or A3R, the BRET signal was calculated by subtracting the 530 nm/450 nm emission for vehicle-treated cells from ligand-treated cells (ligand-induced ΔBRET). ΔBRET for each concentration at 5 minutes (maximum response) was used to produce concentration-response curves.

[2] = test system: adenosine-induced outward current in CA1 pyramidal cells; assay: Whole-cell voltage clamp, adenosine-induced outward current with G protein interfering peptides; assay type: cell-based, rat; details: for mean amplitude of the adenosine-induced outward current with intracellular peptide: peptide 100 μM via patch pipette
Method: Whole cell patch clamp recording from hippocampal pyramidal cells: A slice was transferred to the recording chamber and perfused at 3 mL/min with aCSF at 32±0.5° C. Slices were visualised using IR-DIC optics with an Olympus BX151W microscope (Scientifica) and a CCD camera (Hitachi). Whole-cell current clamp recordings were made from pyramidal cells in area CA1 of the hippocampus using patch pipettes (5 to 10 MΩ) manufactured from thick walled glass (Harvard Apparatus, Edenbridge UK) and containing (mM): potassium gluconate 135, NaCl 7, HEPES 10, EGTA 0.5, phosphocreatine 10, MgATP 2, NaGTP 0.3 and biocytin 1 mg/mL (290 mOSM, pH 7.2). Voltage and current recordings were obtained using an Axon Multiclamp 700B amplifier (Molecular Devices, USA) and digitised at 20 KHz. Data acquisition and analysis was performed using Pclamp 10 (Molecular Devices). For voltage clamp experiments, CA1 pyramidal cells were held at −60 mV. Peptides to interfere with G protein signalling were introduced via the patch pipette into the recorded cell. […].
Drugs: Drugs were made up as stock solutions (1 to 10 mM) and then diluted in aCSF on the day of use. Compounds were dissolved in dimethyl-sulphoxide (DMSO, 0.01% final concentration of DMSO). […]. Peptides for interfering with G protein signalling were obtained from Hello Bio (Bristol, UK) and were based on published sequences (Varani et al., Adv Exp Med Biol 1051, 193-232 (2017)). […] The scrambled version was […]. […] Peptides were made up as stock solutions (2 mM) and stored at −20° C. The stock solutions were dissolved in filtered intracellular solution just before use.

[3] = test system: synaptic transmission in the hippocampus; assay: Extracellular fEPSP recording in hippocampal slices (synaptic transmission); assay type: cell-based, rat
Method: (§2) Preparation of hippocampal slices: Sagittal slices of hippocampus (300-400 μm) were prepared from male Sprague Dawley rats, at postnatal days 12 to 20. Rats were kept on a 12-hour light-dark cycle with slices made 90 minutes after entering the light cycle. […] The brain was removed, cut down the mid line and the two sides of the brain stuck down to a metal base plate. […] Slices were stored at 34° C. for 1 to 6 hours in aCSF (1 mM MgCl2, 2 mM CaCl2) before use.
Extracellular recording: A slice was transferred to the recording chamber, submerged in aCSF and perfused at 4 to 6 mL/min (32° C.). The slice was placed on a grid allowing perfusion above and below the tissue and all tubing was gas tight (to prevent loss of oxygen). For extracellular recording, an aCSF filled microelectrode was placed on the surface of stratum radiatum in CA1. […] For fEPSPs a 10 to 20 minute baseline was recorded at a stimulus intensity that gave 40 to 50% of the maximal response. […] For fEPSP slope, a 1 ms linear region after the fibre volley was measured. Extracellular recordings were made independently on two electrophysiology rigs.
Statistical significance was tested using the unpaired t-test and one-way and two-way ANOVAs with Bonferroni correction for multiple comparisons.
as §1

[4] = test system: seizure activity induced in hippocampal slices; assay: Seizure model in hippocampal slices (no added Mg2+, 6 mM K+ aCSF); assay type: cell-based, rat; details: adenosine 20-100 μM, NECA 300 nM, CPA 300 nM, BnOCPA 300 nM to 1 μM
Method: as §2
Seizure model: Seizure activity was induced in hippocampal slices using aCSF which contained no added Mg^2+ and with the total K^+ concentration increased to 6 mM with KCl. Removal of extracellular Mg^2+ facilitates NMDA receptor activation producing long lasting EPSPS, which can sum together to produce tonic activation. Increasing the extracellular concentration of K^+ depolarises neurons leading to firing and release of glutamate to sustain activity. Both the increase in K^+ concentration and removal of Mg^2+ are required to produce spontaneous activity in hippocampal slices. Spontaneous activity was measured with an aCSF-filled microelectrode placed within stratum radiatum in CA1.

[5] = test system: membrane potential of pyramidal cells; assay: Whole cell current clamp recording of membrane potential, CA1 pyramidal cells; assay type: cell-based, rat
Method: as §2
Whole cell patch clamp recording from hippocampal pyramidal cells: A slice was transferred to the recording chamber and perfused at 3 mL/min with aCSF at 32±0.5° C. Slices were visualised using IR-DIC optics with an Olympus BX151W microscope (Scientifica) and a CCD camera (Hitachi). […] Voltage and current recordings were obtained using an Axon Multiclamp 700B amplifier (Molecular Devices, USA) and digitised at 20 KHz. Data acquisition and analysis was performed using Pclamp 10 (Molecular Devices). For voltage clamp experiments, CA1 pyramidal cells were held at −60 mV. Peptides to interfere with G protein signalling were introduced via the patch pipette into the recorded cell.

[6] = test system: isolated frog heart; assay: Frog heart preparation, heart rate; set-up: species or system Xenopus leavis
Method: Frog heart preparation: Xenopus […] frogs (young adult males) were supplied from Portsmouth Xenopus Resource Centre. Frogs were euthanized with MS222 (0.2% at a pH of 7), decapitated and pithed. The animals were dissected to reveal the heart and the pericardium carefully removed. Heart contractions were measured with a force transducer (AD instruments). Heart rate was acquired via a PowerLab […] (AD instruments) controlled by LabChart 7 (AD instruments). The heart was regularly washed with ringer and drugs were applied directly to the heart.

[7] = test system: urethane-anaesthetised, spontaneously breathing adult rats; assay: In vivo anaesthetised rat preparation, heart rate and mean arterial blood pressure
[8] = rat hippocampal slices, CA1, read-out: IC50, inhibition of synaptic transmission (fEPSP slope)
[9] = IV, adenosine 1 mg·kg^−1, BnOCPA 10 μg·kg^−1, CPA 420 ng·kg^−1

OC[C@H]1O[C@@H](n2cnc3c(N[C@@H]4CCC[C@H]4O)ncnc32)[C@H](O)[C@@H]1O [HOCPA]
activation of / coupling to Goa [1]: coupled to a range of Gi/o subunits, and in particular Goa

scrambled peptide: scrambled version of the Goa peptide, sequence LNRGNAYLCIGMG
effect of peptide on adenosine-induced outward current [2]: neither the scrambled peptide nor the Gob peptide had any effect on current amplitude
mean amplitude of the adenosine-induced outward current with intracellular peptide ([2]; adenosine 10 μM): 43.4±2.4 pA

Gob interfering peptide: peptide interfering with G protein signalling, sequence MGIQNNLKYIGIC
effect of peptide on adenosine-induced outward current [2]: neither the scrambled peptide nor the Gob peptide had any effect on current amplitude
mean amplitude of the adenosine-induced outward current with intracellular peptide ([2]; adenosine 10 μM): 37.4±2.2 pA

Goa interfering peptide: peptide interfering with G protein signalling, sequence MGIANNLRGCGLY
effect of peptide on adenosine-induced outward current [2]: caused a significant attenuation of the adenosine-induced outward current
mean amplitude of the adenosine-induced outward current with intracellular peptide ([2]; adenosine 10 μM): 20.9±3.6 pA

Nc1ncnc2c1ncn2[C@@H]1O[C@H](CO)[C@@H](O)[C@H]1O [adenosine]
IC50 ([3]; Rattus norvegicus, read-out: IC50, inhibition of synaptic transmission by adenosine with 8-CPT, in the presence of 2 μM 8-CPT): 125 ± 10 µM
IC50 [3, 8]: 20 ± 4.3 µM
effect on seizure activity [4]: reversibly blocks seizure activity
effect on seizure activity ([4]; listed as Adenosine): rapidly and reversibly abolished seizure activity
membrane potential after agonist ([5]; adenosine 100 μM, CPA 300 nM): −74.1±1.5 mV
mean change of membrane potential (hyperpolarisation) ([5]; adenosine 100 μM, CPA 300 nM, BnOCPA 300 nM-1 μM): −4.7±0.5 mV
mean amplitude of the outward current induced by adenosine ([2]; adenosine 10 μM, control conditions, held at −60 mV): 43.9±3.1 pA
reduction of heart rate ([6]; adenosine 30 μM): about 15%
reduction of heart rate by adenosine following BnOCPA ([6]; adenosine 30 μM after BnOCPA 300 nM): 0.27±0.2 BPM
reduction / change of heart rate ([6]; adenosine 30 μM, BnOCPA 300 nM, CPA): 6.25±0.6 BPM
heart rate after application ([6]; adenosine 30 μM, from 42±1.2 BPM): 35.5±1.2 BPM
MAP after adenosine co-injected with BnOCPA ([7]; IV co-injection): 51±4 mmHg
change of HR by adenosine co-injected with BnOCPA ([7]; IV co-injection): about 12%
mean change of HR by adenosine co-injected with BnOCPA ([7]; IV co-injection): 51±4 BPM
change of HR [7, 9]: about 66%
heart rate (HR) after injection [7, 9]: 147±12 BPM
mean arterial blood pressure (MAP) after injection [7, 9]: 46±4 mmHg
reduction of MAP ([7]; adenosine IV): about 47%
effect on HR and BP ([7]; single anaesthetised rat preparation, IV): HR and BP depression

Cn1c(=O)c2[nH]c(C3CCCC3)nc2n(C)c1=O [8-CPT, 8-cyclopentyltheophylline]
effect of the A1 receptor antagonist on agonist inhibition of synaptic transmission ([3]; 8-CPT 2 μM (adenosine) or 4 μM (BnOCPA)): reversed the inhibition of synaptic transmission caused by adenosine

NCC(CC(=O)O)c1ccc(Cl)cc1 (stereo not drawn) [baclofen]
mean hyperpolarisation produced by baclofen in the presence of BnOCPA ([5]; BnOCPA 300 nM): 6.5±0.43 mV
membrane potential after baclofen in the presence of BnOCPA (example) ([5]; baclofen (10 µM), BnOCPA 300 nM, from −67 mV): −74 mV
mean hyperpolarisation produced by baclofen in control conditions ([5]; without BnOCPA): 6.3±0.76 mV

CCNC(=O)[C@H]1O[C@@H](n2cnc3c(N)ncnc32)[C@H](O)[C@@H]1O [NECA, 5′-(N-Ethylcarboxamido) adenosine]
IC50 [3, 8]: 0.0083 ± 0.003 µM
effect on seizure activity [4]: rapidly and reversibly abolished seizure activity; also recorded: blocks seizure activity in a reversible manner
activation of / coupling to Goa [1]: coupled to a range of Gi/o subunits, and in particular Goa
